In ChEMBL document CHEMBL1146834, “1-Azakenpaullone is a selective inhibitor of glycogen synthase kinase-3 beta” (Bioorg Med Chem Lett, 2004):

Columns and labels:
[1] = biological target: Cyclin-dependent kinase 1/cyclin B (Homo sapiens, UniProt P06493); experiment: Inhibition of human cyclin-dependent kinase 1-cyclin B; assay type: protein-complex assay
[2] = biological target: Cyclin-dependent kinase 5/CDK5 activator 1 (Homo sapiens, UniProt Q00535); experiment: Inhibition of human Cyclin-dependent kinase 5-p35nck5a; assay type: protein-complex assay
Chain of Cyclin-dependent kinase 5/CDK5 activator 1 (Q00535 whole entry): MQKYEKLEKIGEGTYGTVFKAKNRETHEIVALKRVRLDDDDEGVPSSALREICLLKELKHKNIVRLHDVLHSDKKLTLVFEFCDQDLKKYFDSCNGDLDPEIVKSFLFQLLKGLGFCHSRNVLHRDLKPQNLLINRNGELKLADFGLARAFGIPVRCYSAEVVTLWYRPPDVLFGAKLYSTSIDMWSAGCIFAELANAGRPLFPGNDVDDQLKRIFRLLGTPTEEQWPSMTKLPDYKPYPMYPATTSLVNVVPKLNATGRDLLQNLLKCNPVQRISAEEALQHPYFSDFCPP
Chain of Cyclin-dependent kinase 5/CDK5 activator 1 (Q15078 whole entry, further chain): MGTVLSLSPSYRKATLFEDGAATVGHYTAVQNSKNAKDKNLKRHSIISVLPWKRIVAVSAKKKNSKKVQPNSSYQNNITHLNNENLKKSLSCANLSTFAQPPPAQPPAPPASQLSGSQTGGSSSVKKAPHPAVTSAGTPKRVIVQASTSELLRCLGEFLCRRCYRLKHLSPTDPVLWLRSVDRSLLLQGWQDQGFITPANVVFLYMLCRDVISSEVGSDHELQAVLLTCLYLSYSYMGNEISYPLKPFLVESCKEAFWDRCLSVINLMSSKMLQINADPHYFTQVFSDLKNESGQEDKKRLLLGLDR

[3] = biological target: Glycogen synthase kinase-3 beta (Homo sapiens, UniProt P49841)
Chain of Glycogen synthase kinase-3 beta (P49841 whole entry): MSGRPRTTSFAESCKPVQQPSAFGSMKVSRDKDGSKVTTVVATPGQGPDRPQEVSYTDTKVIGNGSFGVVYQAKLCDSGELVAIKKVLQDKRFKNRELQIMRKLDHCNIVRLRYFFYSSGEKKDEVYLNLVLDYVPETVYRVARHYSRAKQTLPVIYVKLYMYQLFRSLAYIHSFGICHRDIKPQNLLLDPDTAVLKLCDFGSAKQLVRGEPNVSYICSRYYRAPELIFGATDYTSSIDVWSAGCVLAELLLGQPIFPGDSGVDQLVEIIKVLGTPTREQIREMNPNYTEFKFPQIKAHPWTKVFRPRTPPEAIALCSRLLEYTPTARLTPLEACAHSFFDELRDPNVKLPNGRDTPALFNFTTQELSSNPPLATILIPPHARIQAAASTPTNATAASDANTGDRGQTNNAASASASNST
Description: Inhibition of human glycogen synthase kinase-3 beta

[4] = species: Homo sapiens; experiment: Relative inhibition of human CDK-1 and GSK3-beta

SMILES	IC50 [1]	IC50 [2]	IC50 [3]	Selectivity index [4]
O=C1Cc2c([nH]c3ccc(Br)cc23)-c2ncccc2N1 [AZAKENPAULLONE]	2 µM			
O=Nc1c(-c2c(O)[nH]c3ccc(I)cc23)[nH]c2ccccc12	0.025 µM	0.02 µM		
O=C1Cc2c([nH]c3ccc(Br)cc23)-c2cccnc2N1	8.4 µM	12 µM	6 µM	1.4
CC(C)c1c(-c2ccc(Cl)cc2)[nH]c2nccnc12				1.1
NC1=NC(=O)/C(=C2\CCNC(=O)c3[nH]c(Br)cc32)N1 [HYMENIALDISINE]	0.022 µM	0.028 µM		
